From ChEMBL document CHEMBL1132589, “Phosphotyrosine-containing dipeptides as high-affinity ligands for the p56lck SH2 domain” (J Med Chem, 1999)
Where a SMILES comes first, the peptide text is derived from it. [ ]: non-standard residue; d: D form. The star is where a group is joined. pY = N[C@@H](Cc1ccc(OP(=O)(O)O)cc1)C(=O)O; NHPhenethyl = c1ccc(CCN*)cc1; NHBn = c1ccc(CN*)cc1; NHPh = c1ccc(N*)cc1

The molecules below were run against Tyrosine-protein kinase Lck (Homo sapiens, UniProt P06239).
Chain of Tyrosine-protein kinase Lck (P06239 whole entry): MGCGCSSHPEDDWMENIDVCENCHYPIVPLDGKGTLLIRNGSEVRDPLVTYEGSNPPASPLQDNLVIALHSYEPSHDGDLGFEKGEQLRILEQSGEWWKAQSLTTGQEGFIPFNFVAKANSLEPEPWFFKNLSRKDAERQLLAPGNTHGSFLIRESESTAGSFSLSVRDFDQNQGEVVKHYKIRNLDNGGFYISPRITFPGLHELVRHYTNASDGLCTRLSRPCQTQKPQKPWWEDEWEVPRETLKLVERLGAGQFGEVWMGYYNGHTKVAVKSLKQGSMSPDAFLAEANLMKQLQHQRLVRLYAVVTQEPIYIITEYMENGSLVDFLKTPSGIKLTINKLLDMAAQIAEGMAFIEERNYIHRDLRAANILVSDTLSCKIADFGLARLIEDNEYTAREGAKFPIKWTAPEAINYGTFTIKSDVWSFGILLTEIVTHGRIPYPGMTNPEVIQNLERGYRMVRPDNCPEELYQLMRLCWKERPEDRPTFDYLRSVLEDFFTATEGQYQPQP
Description: Binding affinity against p56 Lck tyrosine kinase SH2 domain was measured using glutathione S-transferase (GST) fusion protein

Q: With CC(=O)N[C@@H](Cc1ccc(OP(=O)(O)O)cc1)C(=O)N[C@@H](CC(C)C)C(=O)NCc1cccnc1 as the molecule, how does the Kd read?
A: 34 µM

Q: With CC(=O)N[C@@H](Cc1ccc(OP(=O)(O)O)cc1)C(=O)N[C@@H](CC(C)C)C(=O)NCc1ccncc1 as the molecule, how does the Kd read?
A: 16 µM

Q: Which Kd does the source give for CC(=O)N[C@@H](Cc1ccc(OP(=O)(O)O)cc1)C(=O)N[C@@H](CC(C)C)C(=O)NCc1ccc(C(C)(C)C)cc1 here?
A: 8 µM

Q: For CC(=O)N[C@@H](Cc1ccc(OP(=O)(O)O)cc1)C(=O)N[C@@H](CC(C)C)C(=O)N[C@@H](C)c1ccc(C)cc1, which Kd is on record?
A: 1.5 µM

Q: Which Kd does the source give for CC(=O)N[C@@H](Cc1ccc(OP(=O)(O)O)cc1)C(=O)N[C@@H](CC(C)C)C(=O)NCc1ccccn1 here?
A: 31 µM

Q: How did the Kd turn out when COc1ccc(CNC(=O)[C@H](CC(C)C)NC(=O)[C@H](Cc2ccc(OP(=O)(O)O)cc2)NC(C)=O)cc1OC was run?
A: 12 µM

Q: How did the Kd turn out when COc1ccc(CNC(=O)[C@H](CC(C)C)NC(=O)[C@H](Cc2ccc(OP(=O)(O)O)cc2)NC(C)=O)cc1 was run?
A: 1.5 µM

Q: For CC(=O)N[C@@H](Cc1ccc(OP(=O)(O)O)cc1)C(=O)N[C@@H](CC(C)C)C(=O)NCc1ccc(C)cc1, which Kd is on record?
A: 2.5 µM

Q: How did the Kd turn out when CC(=O)N[C@@H](Cc1ccc(OP(=O)(O)O)cc1)C(=O)N[C@@H](CC(C)C)C(=O)N[C@H](C)c1ccc(C)cc1 was run?
A: 27 µM

Q: Which Kd does the source give for CC(=O)N[C@@H](Cc1ccc(OP(=O)(O)O)cc1)C(=O)N[C@@H](CC(C)C)C(=O)N(C)Cc1ccc(C)cc1 here?
A: 2 µM

Q: How did the Kd turn out when CC(=O)N[C@@H](Cc1ccc(OP(=O)(O)O)cc1)C(=O)N[C@@H](CC(C)C)C(=O)NCc1ccc(C(C)C)cc1 was run?
A: 0.8 µM

Q: With CC(=O)N[C@@H](Cc1ccc(OP(=O)(O)O)cc1)C(=O)N[C@@H](CC(C)C)C(=O)N[C@@H](C)c1ccc(C(C)C)cc1 as the molecule, how does the Kd read?
A: 0.2 µM

Q: For CC(=O)N[C@@H](Cc1ccc(OP(=O)(O)O)cc1)C(=O)N[C@@H](CC(C)C)C(=O)NCc1ccc(N(C)C)cc1, which Kd is on record?
A: 20 µM

Q: How did the Kd turn out when COc1ccccc1CNC(=O)[C@H](CC(C)C)NC(=O)[C@H](Cc1ccc(OP(=O)(O)O)cc1)NC(C)=O was run?
A: 17 µM

Q: With COc1ccc(CNC(=O)[C@H](CCC(=O)O)NC(=O)[C@H](Cc2ccc(OP(=O)(O)O)cc2)NC(C)=O)cc1 as the molecule, how does the Kd read?
A: 0.2 µM

Q: For COc1cccc(CNC(=O)[C@H](CC(C)C)NC(=O)[C@H](Cc2ccc(OP(=O)(O)O)cc2)NC(C)=O)c1, which Kd is on record?
A: 9 µM

Q: With CC(=O)N[C@@H](Cc1ccc(OP(=O)(O)O)cc1)C(=O)N[C@@H](CCC(=O)O)C(=O)Nc1ccccc1 (Ac-[pY]-Glu-NHPh) as the molecule, how does the Kd read?
A: 8 µM

Q: With CC(=O)N[C@@H](Cc1ccc(OP(=O)(O)O)cc1)C(=O)N[C@@H](CCC(=O)O)C(=O)NCCc1ccccc1 (Ac-[pY]-Glu-NHPhenethyl) as the molecule, how does the Kd read?
A: 4 µM

Q: CC(=O)N[C@@H](Cc1ccc(OP(=O)(O)O)cc1)C(=O)N[C@@H](CC(C)C)C(=O)NCc1ccccc1 (Ac-[pY]-Leu-NHBn) was tested. Which Kd did it give?
A: 16 µM
